According to ChEMBL document CHEMBL1157736, “2,3-Diaminopyrazines as Rho kinase inhibitors” (Bioorg Med Chem Lett, 2010):

What was measured:
[1] = molecular target: Rho-associated protein kinase 1 (Homo sapiens, UniProt Q13464); assay: Inhibition of human recombinant ROCK1
[2] = molecular target: Rho-associated protein kinase 2 (Homo sapiens, UniProt O75116); assay: Inhibition of human recombinant ROCK2
Cytochrome P450 2B6 = molecular target: T1, Cytochrome P450 2B6 (Homo sapiens, UniProt P20813); assay: Inhibition of CYP2B6; type: ADME
T1 sequence (P20813 whole entry): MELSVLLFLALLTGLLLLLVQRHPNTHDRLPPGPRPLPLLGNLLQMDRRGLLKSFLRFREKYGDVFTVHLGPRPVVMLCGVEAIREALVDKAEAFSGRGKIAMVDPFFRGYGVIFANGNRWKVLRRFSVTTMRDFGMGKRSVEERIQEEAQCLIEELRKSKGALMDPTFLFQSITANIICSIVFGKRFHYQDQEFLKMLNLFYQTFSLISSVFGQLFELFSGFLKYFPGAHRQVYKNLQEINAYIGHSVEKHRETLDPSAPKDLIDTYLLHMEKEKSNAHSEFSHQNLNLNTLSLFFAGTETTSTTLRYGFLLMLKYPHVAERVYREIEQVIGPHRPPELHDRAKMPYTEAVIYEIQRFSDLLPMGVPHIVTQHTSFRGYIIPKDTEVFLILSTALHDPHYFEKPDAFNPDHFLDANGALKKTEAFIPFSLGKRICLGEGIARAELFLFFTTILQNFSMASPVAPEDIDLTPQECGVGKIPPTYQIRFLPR

Cytochrome P450 2D6 = Cytochrome P450 2D6 (Homo sapiens, UniProt P10635); assay: Inhibition of CYP2D6; type: ADME
Cytochrome P450 1A2 = molecular target: T2, Cytochrome P450 1A2 (Homo sapiens, UniProt P05177); assay: Inhibition of CYP1A2; type: ADME
T2 sequence (P05177 whole entry): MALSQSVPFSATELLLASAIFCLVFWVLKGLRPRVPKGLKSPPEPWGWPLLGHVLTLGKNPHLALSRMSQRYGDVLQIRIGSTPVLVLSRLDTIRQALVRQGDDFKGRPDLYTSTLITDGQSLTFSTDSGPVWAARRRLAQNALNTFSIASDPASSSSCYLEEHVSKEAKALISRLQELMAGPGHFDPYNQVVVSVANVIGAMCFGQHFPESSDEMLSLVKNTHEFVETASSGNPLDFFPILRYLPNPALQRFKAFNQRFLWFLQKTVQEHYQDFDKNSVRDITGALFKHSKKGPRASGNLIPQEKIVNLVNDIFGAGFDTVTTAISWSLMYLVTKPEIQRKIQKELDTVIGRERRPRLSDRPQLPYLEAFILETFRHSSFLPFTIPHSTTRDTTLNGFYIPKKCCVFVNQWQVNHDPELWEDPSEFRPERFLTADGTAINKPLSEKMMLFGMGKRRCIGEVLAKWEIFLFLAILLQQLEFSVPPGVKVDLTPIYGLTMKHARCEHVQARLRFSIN

Cytochrome P450 2C8 = molecular target: T3, Cytochrome P450 2C8 (Homo sapiens, UniProt P10632); assay: Inhibition of CYP2C8; type: ADME
T3 sequence (P10632 whole entry): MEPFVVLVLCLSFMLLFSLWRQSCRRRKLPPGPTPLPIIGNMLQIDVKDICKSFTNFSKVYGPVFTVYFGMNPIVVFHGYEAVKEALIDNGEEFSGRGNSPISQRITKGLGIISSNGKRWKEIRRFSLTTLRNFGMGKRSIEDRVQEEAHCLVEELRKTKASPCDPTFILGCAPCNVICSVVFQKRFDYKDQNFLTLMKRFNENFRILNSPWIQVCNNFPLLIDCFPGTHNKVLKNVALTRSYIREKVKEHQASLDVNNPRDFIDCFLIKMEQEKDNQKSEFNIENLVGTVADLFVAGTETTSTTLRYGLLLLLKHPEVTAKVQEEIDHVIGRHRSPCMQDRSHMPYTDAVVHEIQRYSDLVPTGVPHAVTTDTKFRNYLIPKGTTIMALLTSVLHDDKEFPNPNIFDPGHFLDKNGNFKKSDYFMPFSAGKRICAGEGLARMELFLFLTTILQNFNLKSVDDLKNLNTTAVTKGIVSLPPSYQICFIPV

[3] = Metabolic stability in human liver microsomes after 1 hr; type: ADME, Microsome; conditions: read-out: Stability
Cytochrome P450 2C19 = Cytochrome P450 2C19 (Homo sapiens, UniProt P33261); assay: Inhibition of CYP2C19; type: ADME
Cytochrome P450 3A4 = Cytochrome P450 3A4 (Homo sapiens, UniProt P08684); assay: Inhibition of CYP3A4; type: ADME
Chain of Cytochrome P450 3A4 (P08684 whole entry): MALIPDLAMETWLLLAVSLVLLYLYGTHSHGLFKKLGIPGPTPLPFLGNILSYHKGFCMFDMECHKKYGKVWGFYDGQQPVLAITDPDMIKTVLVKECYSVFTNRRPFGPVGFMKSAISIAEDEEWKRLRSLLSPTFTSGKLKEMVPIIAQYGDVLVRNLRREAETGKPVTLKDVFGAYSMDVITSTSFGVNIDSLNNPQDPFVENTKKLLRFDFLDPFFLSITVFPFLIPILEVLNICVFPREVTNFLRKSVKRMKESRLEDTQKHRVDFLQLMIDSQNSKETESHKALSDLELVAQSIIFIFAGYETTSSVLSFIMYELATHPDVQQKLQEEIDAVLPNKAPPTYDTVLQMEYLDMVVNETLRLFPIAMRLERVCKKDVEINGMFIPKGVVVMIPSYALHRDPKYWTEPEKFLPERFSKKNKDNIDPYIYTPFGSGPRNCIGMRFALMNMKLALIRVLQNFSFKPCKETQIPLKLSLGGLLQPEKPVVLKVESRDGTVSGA

Chain of Rho-associated protein kinase 1 (Q13464 whole entry): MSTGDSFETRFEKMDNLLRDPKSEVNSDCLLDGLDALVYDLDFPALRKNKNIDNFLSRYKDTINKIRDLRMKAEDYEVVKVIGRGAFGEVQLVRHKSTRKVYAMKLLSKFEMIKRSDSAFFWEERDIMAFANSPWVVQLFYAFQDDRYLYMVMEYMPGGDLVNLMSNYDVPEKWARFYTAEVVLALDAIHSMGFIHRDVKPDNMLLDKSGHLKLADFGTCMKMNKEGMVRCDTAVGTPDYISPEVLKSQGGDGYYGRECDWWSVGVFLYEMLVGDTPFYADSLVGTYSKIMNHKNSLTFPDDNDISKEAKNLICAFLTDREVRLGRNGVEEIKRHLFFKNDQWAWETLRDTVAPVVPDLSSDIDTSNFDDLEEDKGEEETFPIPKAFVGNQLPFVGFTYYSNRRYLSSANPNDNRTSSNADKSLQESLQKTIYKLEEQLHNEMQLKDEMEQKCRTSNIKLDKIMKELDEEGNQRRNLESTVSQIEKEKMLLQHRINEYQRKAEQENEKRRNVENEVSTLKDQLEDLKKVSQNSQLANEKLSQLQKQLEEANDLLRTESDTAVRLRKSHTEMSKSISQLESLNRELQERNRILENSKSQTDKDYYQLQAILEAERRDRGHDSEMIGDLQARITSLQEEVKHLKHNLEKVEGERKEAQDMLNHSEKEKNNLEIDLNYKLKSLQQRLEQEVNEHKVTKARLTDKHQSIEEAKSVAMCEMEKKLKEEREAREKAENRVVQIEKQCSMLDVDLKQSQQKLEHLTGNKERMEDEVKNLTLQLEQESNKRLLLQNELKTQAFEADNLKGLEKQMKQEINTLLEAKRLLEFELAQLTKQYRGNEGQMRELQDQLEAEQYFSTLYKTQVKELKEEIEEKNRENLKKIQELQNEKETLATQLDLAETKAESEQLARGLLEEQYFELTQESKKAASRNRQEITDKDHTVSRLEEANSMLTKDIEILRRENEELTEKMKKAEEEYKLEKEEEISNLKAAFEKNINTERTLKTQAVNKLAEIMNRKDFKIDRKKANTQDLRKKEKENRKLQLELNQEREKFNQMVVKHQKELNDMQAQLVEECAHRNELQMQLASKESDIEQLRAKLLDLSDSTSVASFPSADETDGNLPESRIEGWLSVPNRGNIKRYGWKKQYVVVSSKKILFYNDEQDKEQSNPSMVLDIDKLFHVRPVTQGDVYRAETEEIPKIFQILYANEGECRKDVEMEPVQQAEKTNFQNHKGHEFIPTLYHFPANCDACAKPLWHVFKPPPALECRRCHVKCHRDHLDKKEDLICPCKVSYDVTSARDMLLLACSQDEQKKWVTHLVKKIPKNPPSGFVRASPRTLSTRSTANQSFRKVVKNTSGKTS
Chain of Rho-associated protein kinase 2 (O75116 whole entry): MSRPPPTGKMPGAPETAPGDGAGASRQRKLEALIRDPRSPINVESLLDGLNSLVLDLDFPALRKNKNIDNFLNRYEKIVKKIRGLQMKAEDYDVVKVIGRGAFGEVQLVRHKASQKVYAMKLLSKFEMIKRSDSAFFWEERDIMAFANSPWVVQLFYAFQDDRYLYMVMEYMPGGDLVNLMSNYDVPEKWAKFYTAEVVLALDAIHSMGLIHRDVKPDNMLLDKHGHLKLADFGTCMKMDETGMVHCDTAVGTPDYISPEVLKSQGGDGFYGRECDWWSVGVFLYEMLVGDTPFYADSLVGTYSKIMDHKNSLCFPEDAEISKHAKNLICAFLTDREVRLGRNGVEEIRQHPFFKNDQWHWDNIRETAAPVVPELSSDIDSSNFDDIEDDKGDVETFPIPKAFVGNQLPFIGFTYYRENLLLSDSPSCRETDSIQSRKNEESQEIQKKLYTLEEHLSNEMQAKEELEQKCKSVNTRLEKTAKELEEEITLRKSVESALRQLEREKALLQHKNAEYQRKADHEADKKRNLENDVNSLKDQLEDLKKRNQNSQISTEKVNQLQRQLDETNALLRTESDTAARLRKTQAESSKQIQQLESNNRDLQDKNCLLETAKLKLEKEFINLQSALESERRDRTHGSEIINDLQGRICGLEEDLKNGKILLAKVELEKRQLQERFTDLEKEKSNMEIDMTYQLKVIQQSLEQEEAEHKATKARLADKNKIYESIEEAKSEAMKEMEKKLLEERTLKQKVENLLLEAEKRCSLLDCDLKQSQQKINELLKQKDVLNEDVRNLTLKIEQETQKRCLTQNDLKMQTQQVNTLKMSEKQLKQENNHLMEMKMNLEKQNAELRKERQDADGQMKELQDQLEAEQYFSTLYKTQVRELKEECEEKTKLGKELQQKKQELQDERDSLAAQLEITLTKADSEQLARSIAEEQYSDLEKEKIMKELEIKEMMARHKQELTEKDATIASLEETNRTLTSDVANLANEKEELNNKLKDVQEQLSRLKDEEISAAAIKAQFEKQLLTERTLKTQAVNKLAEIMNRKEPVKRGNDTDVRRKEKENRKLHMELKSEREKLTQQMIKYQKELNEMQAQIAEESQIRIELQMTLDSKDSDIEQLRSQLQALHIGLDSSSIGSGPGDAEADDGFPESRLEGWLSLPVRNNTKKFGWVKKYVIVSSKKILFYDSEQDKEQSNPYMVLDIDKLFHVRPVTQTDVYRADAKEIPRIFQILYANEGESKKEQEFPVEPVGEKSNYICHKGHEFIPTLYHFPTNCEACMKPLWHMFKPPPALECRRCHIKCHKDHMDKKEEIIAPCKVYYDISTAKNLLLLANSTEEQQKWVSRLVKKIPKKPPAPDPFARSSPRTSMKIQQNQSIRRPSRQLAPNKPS
Chain of Cytochrome P450 2D6 (P10635 whole entry): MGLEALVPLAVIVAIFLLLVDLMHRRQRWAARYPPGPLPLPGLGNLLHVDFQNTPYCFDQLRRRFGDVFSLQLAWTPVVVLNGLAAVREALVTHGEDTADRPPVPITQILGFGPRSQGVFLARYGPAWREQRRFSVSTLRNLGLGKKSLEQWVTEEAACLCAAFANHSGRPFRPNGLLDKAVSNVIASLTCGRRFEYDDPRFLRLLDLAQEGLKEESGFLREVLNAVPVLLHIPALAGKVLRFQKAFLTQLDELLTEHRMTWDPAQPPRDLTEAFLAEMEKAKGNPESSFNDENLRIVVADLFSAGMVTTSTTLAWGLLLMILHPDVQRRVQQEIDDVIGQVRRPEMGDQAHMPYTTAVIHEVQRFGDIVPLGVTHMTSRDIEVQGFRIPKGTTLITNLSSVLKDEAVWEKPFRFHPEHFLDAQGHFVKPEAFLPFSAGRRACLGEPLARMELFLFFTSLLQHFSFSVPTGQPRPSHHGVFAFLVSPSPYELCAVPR
Chain of Cytochrome P450 2C19 (P33261 whole entry): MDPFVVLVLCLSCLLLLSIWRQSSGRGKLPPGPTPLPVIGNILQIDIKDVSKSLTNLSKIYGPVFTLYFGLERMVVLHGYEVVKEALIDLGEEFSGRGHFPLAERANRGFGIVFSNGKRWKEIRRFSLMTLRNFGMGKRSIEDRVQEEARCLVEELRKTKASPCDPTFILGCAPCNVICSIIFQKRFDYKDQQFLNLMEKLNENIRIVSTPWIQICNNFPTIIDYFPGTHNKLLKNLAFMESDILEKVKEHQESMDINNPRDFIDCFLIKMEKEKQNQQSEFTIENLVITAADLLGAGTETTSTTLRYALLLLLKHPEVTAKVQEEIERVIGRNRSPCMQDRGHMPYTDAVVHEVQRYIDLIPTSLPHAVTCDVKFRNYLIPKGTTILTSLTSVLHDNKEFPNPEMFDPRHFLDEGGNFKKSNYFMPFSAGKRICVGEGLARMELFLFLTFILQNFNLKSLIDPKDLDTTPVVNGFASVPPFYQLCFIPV

CCN(CC)c1ncc(-c2ccncc2)nc1N1CCCN(C)CC1
IC50 [1]: 2600 nM | IC50 [2]: 6700 nM

CN1CCCN(c2nc(-c3ccncc3)cnc2NCCO)CC1
IC50 [1]: 42000 nM | IC50 [2]: 3000 nM

CN1CCCN(c2nc(-c3ccc4cn[nH]c4c3)cnc2N)CC1
IC50 [1]: > 10000 nM | IC50 [2]: > 10000 nM

CNc1ncc(-c2ccncc2)nc1N1CCCN(C)CC1
IC50 [1]: 6900 nM | IC50 [2]: 2400 nM

Nc1ncc(-c2ccncc2)nc1N1CCN(CCO)CC1
IC50 [1]: 4600 nM | IC50 [2]: 2500 nM

Cc1cc(-c2cnc(N)c(N3CCCN(C)CC3)n2)ccn1
IC50 [1]: > 100000 nM | IC50 [2]: > 100000 nM

COCCNc1ncc(-c2ccncc2)nc1N1CCCN(C)CC1
IC50 [1]: 10000 nM | IC50 [2]: 52000 nM

CN1CCCN(c2nc(-c3ccc4[nH]ncc4c3)cnc2N)CC1
IC50 [1]: 2300 nM | IC50 [2]: 950 nM

CNC1CCN(c2nc(-c3ccncc3)cnc2N2CCCC2)CC1
IC50 [1]: 1800 nM | IC50 [2]: 250 nM

CN1CCCN(c2nc(-c3ccnc(N)c3)cnc2N)CC1
IC50 [1]: 25000 nM | IC50 [2]: 53000 nM

CN1CCCN(c2nc(-c3ccnc4[nH]ccc34)cnc2N)CC1
IC50 [1]: 1500 nM | IC50 [2]: 530 nM

NCC1CCN(c2nc(-c3ccncc3)cnc2N2CCCC2)CC1
IC50 [1]: 130 nM | IC50 [2]: 28 nM

c1cc(-c2cnc(N3CCCC3)c(N3CCNCC3)n2)ccn1
IC50 [1]: 610 nM | IC50 [2]: 62 nM

CN1CCCN(c2nc(-c3ccncc3)cnc2N2CCOCC2)CC1
IC50 [1]: 68000 nM | IC50 [2]: 6300 nM

c1cc(-c2cnc(N3CCCC3)c(N3CCCNCC3)n2)ccn1
IC50 [1]: 320 nM | IC50 [2]: 39 nM

COCCN(C)c1ncc(-c2ccncc2)nc1N1CCCN(C)CC1
IC50 [1]: 48000 nM | IC50 [2]: 45000 nM

CN1CCCN(c2nc(-c3ccncc3)cnc2N2CCCC2)CC1
IC50 [1]: 6000 nM | IC50 [2]: 330 nM

c1cc(-c2cnc(N3CCCC3)c(N3CCCNCC3)n2)c2cc[nH]c2n1
IC50 [1]: 170 nM

NC1CCN(c2nc(-c3ccnc4[nH]ccc34)cnc2N2CCCC2)CC1
IC50 [1]: 300 nM | IC50 [2]: 89 nM

OCCN1CCN(c2nc(-c3ccncc3)cnc2N2CCCC2)CC1
Activity (Cytochrome P450 2B6): > 2 µM | Activity (Cytochrome P450 2D6): > 2 µM | Activity (Cytochrome P450 1A2): > 2 µM | Activity (Cytochrome P450 2C8): > 2 µM | remaining at 1 h [3]: 100% | Activity (Cytochrome P450 2C19): > 2 µM | Activity (Cytochrome P450 3A4): > 2 µM | IC50 [1]: 300 nM | IC50 [2]: 78 nM

CN1CCCN(c2nc(-c3cccc4[nH]ncc34)cnc2N)CC1
IC50 [1]: 9600 nM | IC50 [2]: 2500 nM

CN1CCCN(c2nc(-c3cc[nH]n3)cnc2N)CC1
IC50 [1]: 37000 nM | IC50 [2]: 2900 nM

CN1CCCN(c2nc(-c3ccncc3)cnc2N(C)C)CC1
IC50 [1]: 6500 nM | IC50 [2]: 1700 nM

Cc1cnccc1-c1cnc(N)c(N2CCCN(C)CC2)n1
IC50 [1]: 120000 nM | IC50 [2]: 58000 nM

CNCC1CCN(c2nc(-c3ccncc3)cnc2N2CCCC2)CC1
IC50 [1]: 150 nM | IC50 [2]: 49 nM

NC1CCN(c2nc(-c3ccncc3)cnc2N2CCCC2)CC1
IC50 [1]: 290 nM | IC50 [2]: 62 nM

CN1CCCN(c2nc(-c3ccncc3)cnc2N)CC1
IC50 [1]: 4600 nM | IC50 [2]: 2500 nM

CN1CCCN(c2nc(-c3ccncc3)cnc2N2CCCCC2)CC1
IC50 [1]: 18000 nM | IC50 [2]: 560 nM

c1cc(-c2cnc(N3CCCC3)c(N3CCNCC3)n2)c2cc[nH]c2n1
IC50 [1]: 34 nM | IC50 [2]: 17 nM

CN(C)c1ncc(-c2ccncc2)nc1N1CCN(CCO)CC1
IC50 [1]: 1400 nM | IC50 [2]: 300 nM
